Reference: US10865191B2, “Heterocyclic compounds useful as modulators of TNF alpha” (BRISTOL-MYERS SQUIBB COMPANY, priority 2015, dated 2020)

target: TNFα (Homo sapiens, UniProt P01375); assay: TNF induced HEK-Blue assay (NF-kB-driven secreted alkaline phosphatase reporter); format: cell-based; conditions: TNF induced HEK-Blue assay IC50 value, TNFα 0.5 ng/mL, HEK-Blue-CD40L cells, 18 h
Summary of the method: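 HEK-Blue-CD40L cells (NF-kB-driven SEAP reporter), 20,000/well, added after 30 min pre-incubation of compound (0.004–25 μM final) with TNFα 0.5 ng/mL final at 37 °C; 18 h incubation. SEAP read with QUANTI-Blue at 620 nm; IC50 from 4-parameter logistic fit, normalized to unstimulated and stimulated DMSO controls.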

TNFα, sequence (P01375 77-233 limits assumed): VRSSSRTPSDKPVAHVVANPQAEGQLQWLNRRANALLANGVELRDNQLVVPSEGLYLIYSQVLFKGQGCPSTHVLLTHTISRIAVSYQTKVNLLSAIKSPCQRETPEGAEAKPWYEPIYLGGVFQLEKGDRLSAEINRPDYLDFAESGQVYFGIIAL

IC50	SMILES
< 1000 nM	CCC(Nc1c(Cl)cnc2ccc(-c3cnc(C(C)(C)O)nc3)cc12)c1ccccc1F (racemic) [Example 190, 2-(5-(3-chloro-4-((1-(2-fluorophenyl)propyl)amino)quinolin-6-yl)pyrimidin-2-yl)propan-2-ol]

same assay, conditions: TNFα 0.5 ng/mL, HEK-Blue-CD40L cells, 18 h; read-out: TNF induced HEK-Blue assay IC50 value

SMILES	IC50
CC(Nc1c(Cl)cnc2cc(F)c(-c3cnc(C(C)(O)CO)nc3)cc12)c1ccccc1F (stereo not drawn) [Example 257, 2-(5-(3-chloro-7-fluoro-4-((1-(2-fluorophenyl)ethyl)amino)quinolin-6-yl)pyrimidin-2-yl)propane-1,2-diol]	< 1000 nM
Cc1nc2ccc(-c3cnc(C(C)(C)O)nc3)cc2c(N[C@H](C)c2ccccc2)c1Cl [Example 322, (R)-2-(5-(3-chloro-2-methyl-4-((1-phenylethyl)amino)quinolin-6-yl)pyrimidin-2-yl)propan-2-ol]	10000 to 25000 nM
C[C@@H](Nc1c(Cl)cnc2ccc(-c3cnc(NCC(N)=O)nc3)cc12)c1ccccc1F [Example 585, (R)-2-((5-(3-chloro-4-((1-(2-fluorophenyl)ethyl)amino)quinolin-6-yl)pyrimidin-2-yl)amino)acetamide]	10000 to 25000 nM
CC(Nc1c(Cl)cnc2cc(F)c(-c3ccc(C(O)CN4CCOCC4)cc3)cc12)c1ccccc1F (stereo not drawn) [Example 272, 1-(4-(3-chloro-7-fluoro-4-((1-(2-fluorophenyl)ethyl)amino)quinolin-6-yl)phenyl)-2-morpholinoethan-1-ol]	< 1000 nM
Cc1ccc(C)c(Nc2c(C)c(C)nc3ccc(-c4cnc(C(C)(C)O)nc4)cc23)c1 [Example 184, 2-(5-(4-((2,5-dimethylphenyl)amino)-2,3-dimethylquinolin-6-yl)pyrimidin-2-yl)propan-2-ol]	< 1000 nM
Cc1nc2ccc(-c3cnc(C(C)(C)O)nc3)cc2c(N[C@H](C)c2cc(-c3cnc(C(C)(C)O)nc3)ccc2F)c1Cl [Example 343, (R)-2-(5-(3-chloro-4-((1-(2-fluoro-5-(2-(2-hydroxypropan-2-yl)pyrimidin-5-yl)phenyl)ethyl)amino)-2-methylquinolin-6-yl)pyrimidin-2-yl)propan-2-ol]	< 1000 nM
Cc1nc2cc(F)c(-c3cnc(C(C)(C)O)nc3)nc2c(N[C@H](C)c2cc(C(N)=O)ccc2F)c1Cl [Example 584, (R)-3-(1-((3-chloro-7-fluoro-6-(2-(2-hydroxypropan-2-yl)pyrimidin-5-yl)-2-methyl-1,5-naphthyridin-4-yl)amino)ethyl)-4-fluorobenzamide]	< 1000 nM
C[C@@H](Nc1c(Cl)cnc2ccc(-c3cnn(C)c3)cc12)c1cc(-c2cncnc2)ccc1F [Example 550, (R)-3-chloro-N-(1-(2-fluoro-5-(pyrimidin-5-yl)phenyl)ethyl)-6-(1-methyl-1H-pyrazol-4-yl)quinolin-4-amine]	< 1000 nM
C=CC(=O)N1CCN(c2ccc(-c3ccc4ncc(Cl)c(N[C@H](C)c5ccccc5F)c4c3)cn2)CC1 [Example 123, (R)-1-(4-(5-(3-chloro-4-((1-(2-fluorophenyl)ethyl)amino)quinolin-6-yl)pyridin-2-yl)piperazin-1-yl)prop-2-en-1-one]	< 1000 nM
C[C@@H](Nc1c(Cl)cnc2ccc(-c3cnc(N4CCOCC4)nc3)cc12)c1ccccc1F [Example 219, (R)-3-chloro-N-(1-(2-fluorophenyl)ethyl)-6-(2-morpholinopyrimidin-5-yl)quinolin-4-amine]	< 1000 nM
CNCC(O)c1ccc(-c2cc3c(NC(C)c4ccccc4F)c(Cl)cnc3cc2F)cc1 (single isomer, unassigned) [Example 600, 1-(4-(3-chloro-7-fluoro-4-((1-(2-fluorophenyl)ethyl)amino)quinolin-6-yl)phenyl)-2-(methylamino)ethan-1-ol]	< 1000 nM
C[C@@H](Nc1c(Cl)cnc2ccc(-c3cnc(N4CCN(Cc5nn[nH]n5)CC4)nc3)cc12)c1ccccc1F [Example 237, (R)-6-(2-(4-((2H-tetrazol-5-yl)methyl)piperazin-1-yl)pyrimidin-5-yl)-3-chloro-N-(1-(2-fluorophenyl)ethyl)quinolin-4-amine]	< 1000 nM
C[C@@H](Nc1c(Cl)cnc2cc(F)c(-c3cnc(C(C)(C)O)nc3)nc12)c1cc(C(N)=O)ccc1F [Example 583, (R)-3-(1-((3-chloro-7-fluoro-6-(2-(2-hydroxypropan-2-yl)pyrimidin-5-yl)-1,5-naphthyridin-4-yl)amino)ethyl)-4-fluorobenzamide]	< 1000 nM
CC(Nc1c(Cl)cnc2ccc(-c3ccc(C(C)(C)O)cc3)cc12)c1cccs1 (racemic) [Example 199, 2-(4-(3-chloro-4-((1-(thiophen-2-yl)ethyl)amino)quinolin-6-yl)phenyl)propan-2-ol]	< 1000 nM
CNC(=O)c1ccc(F)c([C@@H](C)Nc2c(Cl)cnc3ccc(-c4cnc(C(C)(C)O)nc4)cc23)c1 [Example 416, (R)-3-(1-((3-chloro-6-(2-(2-hydroxypropan-2-yl)pyrimidin-5-yl)quinolin-4-yl)amino)ethyl)-4-fluoro-N-methylbenzamide]	1000 to 10000 nM

Other lines, results leading:

IC50	SMILES
< 1000 nM	C[C@@H](Nc1c(Cl)cnc2ccc(-c3cnc(C(C)(C)O)nc3)cc12)c1cc(N2CCNC2=O)ccc1F [Example 370, (R)-1-(3-(1-((3-chloro-6-(2-(2-hydroxypropan-2-yl)pyrimidin-5-yl)quinolin-4-yl)amino)ethyl)-4-fluorophenyl)imidazolidin-2-one]
1000 to 10000 nM	CC(Nc1c(Cl)cnc2ccc(-c3cnc(C(C)(C)O)nc3)cc12)[C@H]1CCCN(C(=O)OC(C)(C)C)C1 (mixture of isomers) [Example 60, (S)-tert-butyl 3-(1-((3-chloro-6-(2-(2-hydroxypropan-2-yl)pyrimidin-5-yl)quinolin-4-yl)amino)ethyl)piperidine-1-carboxylate]
10000 to 25000 nM	CNS(=O)(=O)c1ccc(-c2cc(Cl)c3ncc(Cl)c(NC(C)c4ccccc4F)c3c2)cc1 (racemic) [Example 22, 4-(3,8-dichloro-4-((1-(2-fluorophenyl)ethyl)amino)quinolin-6-yl)-N-methylbenzenesulfonamide]
10000 to 25000 nM	CC(Nc1c(Cl)cnc2ccc(-c3cnc(C(C)(C)O)nc3)cc12)c1ccc(C(F)(F)F)cc1 (racemic) [Example 150, 2-(5-(3-chloro-4-((1-(4-(trifluoromethyl)phenyl)ethyl)amino)quinolin-6-yl)pyrimidin-2-yl)propan-2-ol]
< 1000 nM	CC(C)(O)c1ncc(-c2ccc3ncc(Cl)c(NC(CCF)c4ccccc4F)c3c2)cn1 (racemic) [Example 230, 2-(5-(3-chloro-4-((3-fluoro-1-(2-fluorophenyl)propyl)amino)quinolin-6-yl)pyrimidin-2-yl) propan-2-ol]
1000 to 10000 nM	COC(=O)[C@H](CN)N1CCN(c2ncc(-c3ccc4ncc(Cl)c(N[C@H](C)c5ccccc5F)c4c3)cn2)CC1 [Example 99, methyl (S)-3-amino-2-(4-(5-(3-chloro-4-(((R)-1-(2-fluorophenyl)ethyl)amino)quinolin-6-yl)pyrimidin-2-yl)piperazin-1-yl) propanoate]
10000 to 25000 nM	C[C@@H](Nc1c(Cl)cnc2ccc(-c3cnc(C(C)(C)O)nc3)cc12)c1cccc(-n2cccn2)c1 [Example 368, (R)-2-(5-(4-((1-(3-(1H-pyrazol-1-yl)phenyl)ethyl)amino)-3-chloroquinolin-6-yl)pyrimidin-2-yl)propan-2-ol]
1000 to 10000 nM	CC(Nc1c(Cl)cnc2ccc(-c3cnc(C(C)(C)O)nc3)cc12)[C@@H]1CCCN(C(N)=O)C1 (single isomer, unassigned) [Example 104]
